In experiment [1] the test system is A2780cisR. Put plainly: Antiproliferative activity against cisplatin-resistant human A2780cis cells at 1 to 20 uM by cell counting kit-8 analysis. Format: functional, cell-based. The note with it: TDE = time-dependent effect. For orientation: Tetrazolium assays rely on reduction of a dye to a coloured formazan, in cell work by metabolically active cells.
Experiment [2] deals with A2780cisR. Briefly: Induction of apoptosis in cisplatin-resistant human A2780cis cells assessed as shrunken and fragmented nuclei with condensed chromatin at 20 uM after 24 hrs by TO-PRO-3 iodide staining based immunofluorescent microscopy. Format: functional, cell-based.
Experiment [3] concerns A2780cisR. Briefly: Induction of apoptosis in cisplatin-resistant human A2780cis cells assessed as PARP cleavage at 20 uM after 24 hrs by western blot analysis. Format: functional, cell-based. (In general: Immunoblotting shows a protein as a band on a membrane.)
In experiment [4] the test system is A2780cisR. Put plainly: Antiproliferative activity against cisplatin-resistant human A2780cis cells after 24 to 48 hrs by cell counting kit-8 analysis. Format: functional, cell-based.
Experiment [5] in a line: Cell cycle arrest in cisplatin-resistant human A2780cis cells assessed as accumulation at G2/M phase at 20 uM after 24 hrs by propidium iodide staining based flow cytometry (reference value: 29.47%). Format: functional. Conditions: A2780cisR.
Experiment [6] has as its system A2780cisR. Briefly: Induction of apoptosis in cisplatin-resistant human A2780cis cells assessed as increase in cleaved active caspase-7 level at 20 uM after 24 hrs by immunofluorescent microscopy. Format: functional, cell-based.
The subject of experiment [7] is A2780cisR. Put plainly: Induction of apoptosis in cisplatin-resistant human A2780cis cells assessed as stimulation of caspase 7 cleavage at 20 uM after 24 hrs by western blot analysis. Format: functional, cell-based.
Experiment [8] is described as follows: Cell cycle arrest in cisplatin-resistant human A2780cis cells assessed as accumulation at G1 phase at 20 uM after 24 hrs by propidium iodide staining based flow cytometry (reference value: 45.33%). Format: functional. Conditions: A2780cisR.
Experiment [9] can be described thus: Cell cycle arrest in cisplatin-resistant human A2780cis cells assessed as accumulation at S phase at 20 uM after 24 hrs by propidium iodide staining based flow cytometry (reference value: 17.24%). Format: functional. The note with it: A2780cisR. Background: In flow cytometry, cells or beads pass a laser one at a time.
The nature of experiment [10]: Growth inhibition of cisplatin-resistant human A2780cis cells after 7 days by crystal violet staining based clonogenic assay. Format: functional. Conditions: A2780cisR, 168 h.
The nature of experiment [11]: Cell cycle arrest in cisplatin-resistant human A2780cis cells assessed as accumulation at sub-G1 phase at 20 uM after 24 hrs by propidium iodide staining based flow cytometry (reference value: 7.76%). Format: functional. Conditions: A2780cisR.
The target in a further experiment is T1, Aurora kinase A (Homo sapiens, UniProt O14965).
T1 sequence (O14965 whole entry): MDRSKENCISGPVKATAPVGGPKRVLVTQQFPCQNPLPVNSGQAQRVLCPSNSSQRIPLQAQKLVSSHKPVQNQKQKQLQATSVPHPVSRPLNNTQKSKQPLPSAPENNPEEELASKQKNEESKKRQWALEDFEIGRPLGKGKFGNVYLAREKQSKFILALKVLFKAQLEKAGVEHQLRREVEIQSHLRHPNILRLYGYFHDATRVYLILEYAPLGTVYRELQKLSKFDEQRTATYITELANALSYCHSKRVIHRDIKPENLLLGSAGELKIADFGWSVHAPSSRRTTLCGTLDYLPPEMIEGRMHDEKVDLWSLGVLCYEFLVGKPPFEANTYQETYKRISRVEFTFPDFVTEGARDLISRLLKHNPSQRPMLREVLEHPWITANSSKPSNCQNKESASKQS
Briefly: Inhibition of human aurora A kinase using LRRASLG as substrate by scintillation counting in presence of [gamma-33P]ATP.

By IC50 is commonly meant the midpoint of a concentration-inhibition curve.

Activity calls are given as the source filed them. The calls are words filed in the database; no cut-off is given here. A value given as a limit tells only on which side of the number the result lay.

For the compound `COc1cc(OC)c(/C=C/C(=O)c2cc(OC)ccc2O)c(OC)c1`, the Activity result with A2780cisR [1] is “tde”; in the experiment with A2780cisR [4], “Dose-dependent effect”; in experiment [5], 68.3%; in [8], 3.53%; in experiment [9], 4.09%; in experiment [11], 16.5%. Besides, the outcome in the experiment with A2780cisR [2], with A2780cisR [3], with A2780cisR [6] and with A2780cisR [7] was Active. Further, the results for the GI50 in experiment [10] (read-out: GI50) and in experiment [10] (read-out: pGI50 (converted)) were 3.95 µM and 3.99 µM, respectively.
For `COc1ccc(/C=C/C(=O)c2c(O)cccc2OC)cc1`, the figures for the GI50 in experiment [10] (read-out: GI50) and in experiment [10] (read-out: pGI50 (converted)) were 15.4 µM and 15.5 µM, respectively.
For the compound `COc1ccc(/C=C/C(=O)c2c(O)cccc2OC)c(OC)c1OC`, the values for the GI50 in experiment [10] (read-out: GI50) and in experiment [10] (read-out: pGI50 (converted)) were 18.4 µM and 18.2 µM, respectively.
Regarding `COc1ccc2c(c1)OCC(C=O)=C2`, the GI50 was more than 20 µM in experiment [10] (read-out: GI50) and 20 µM in experiment [10] (read-out: pGI50 (converted)).
In the case of `COc1ccc(/C=C/C(=O)c2ccccc2O)c(OC)c1OC`, the GI50 was 14.3 µM in experiment [10] (read-out: GI50) and 14.5 µM in experiment [10] (read-out: pGI50 (converted)).
`COc1cc(OC)c(/C=C/C(=O)c2c(O)cccc2OC)c(OC)c1`: the Activity entry in the experiment with A2780cisR [1] is “tde”; with A2780cisR [4], “Dose-dependent effect”; in experiment [5] it was 71%; in [8] it was 3.36%; in experiment [9], 4.33%; in experiment [11], 17.1%. Moreover, the result in the experiment with A2780cisR [3] and in the experiment on A2780cisR [7] was Active. Besides, on Aurora kinase A, the IC50 came out at 66.4 µM. The figures for the GI50 in experiment [10] (read-out: GI50) and in [10] (read-out: pGI50 (converted)) were 3.87 µM and 3.9 µM, respectively.
As to `COc1cc(OC)c(OC)cc1/C=C/C(=O)c1c(O)cccc1OC`, the GI50 in experiment [10] (read-out: GI50) was 19.2 µM; in experiment [10] (read-out: pGI50 (converted)), 19.1 µM.
Regarding `COc1cccc(/C=C/C(=O)c2c(O)cccc2OC)c1OC`, the GI50 in [10] (read-out: GI50) was 9.67 µM; in experiment [10] (read-out: pGI50 (converted)), 9.8 µM.
As to `COc1ccccc1/C=C/C(=O)c1ccccc1O`, the GI50 in [10] (read-out: GI50) is 11.7 µM; in experiment [10] (read-out: pGI50 (converted)), 11.8 µM.
The like results for `COc1ccc(O)c(C(=O)/C=C/c2cc(OC)c(OC)cc2OC)c1` were, in that order, more than 20 µM and 20 µM.
Turning to `COc1ccc(/C=C/C(=O)c2ccccc2O)c(OC)c1`, the values for the GI50 in experiment [10] (read-out: GI50) and in experiment [10] (read-out: pGI50 (converted)) were 15 µM and 14.8 µM, respectively.
The like results for `COc1ccc2c(c1)C=C(C(C)=O)CO2` were, in that order, more than 20 µM and 20 µM.
`COc1ccc2c(c1)OCC(C(C)=O)=C2`: the GI50 is more than 20 µM in experiment [10] (read-out: GI50) and 20 µM in experiment [10] (read-out: pGI50 (converted)).
For the compound `COc1ccc2c(c1)C=C(C=O)CO2`, the GI50 was more than 20 µM in experiment [10] (read-out: GI50) and 20 µM in [10] (read-out: pGI50 (converted)).
Consider `COc1cccc(/C=C/C(=O)c2cc(OC)ccc2O)c1`, for which the GI50 in experiment [10] (read-out: GI50) is 10.1 µM; in experiment [10] (read-out: pGI50 (converted)), 10.3 µM.
As to `COc1cc(/C=C/C(=O)c2cc(OC)ccc2O)cc(OC)c1`, the GI50 in experiment [10] (read-out: GI50) is 11.3 µM; in experiment [10] (read-out: pGI50 (converted)) it was 11.2 µM.
As to `COc1ccc(O)c(C(=O)/C=C/c2cccc(OC)c2OC)c1`, the GI50 in experiment [10] (read-out: GI50) and in [10] (read-out: pGI50 (converted)) was 17 µM in each case.
In the case of `COc1ccc(/C=C/C(=O)c2ccccc2O)cc1`, the GI50 in [10] (read-out: GI50) and in experiment [10] (read-out: pGI50 (converted)) was 15.9 µM each time.
In the case of `COc1ccc(/C=C/C(=O)c2c(O)cccc2OC)c(OC)c1`, the GI50 in experiment [10] (read-out: GI50) is 9.55 µM; in [10] (read-out: pGI50 (converted)), 9.57 µM.
For `COc1cc(/C=C/C(=O)c2ccccc2O)cc(OC)c1`, the GI50 was 13.7 µM in experiment [10] (read-out: GI50) and 13.8 µM in [10] (read-out: pGI50 (converted)).
As for `COc1ccc(/C=C/C(=O)c2cc(OC)ccc2O)c(OC)c1`, the GI50 in experiment [10] (read-out: GI50) is 19.8 µM; in experiment [10] (read-out: pGI50 (converted)) it was 20 µM.
In the case of `COc1cccc(/C=C/C(=O)c2c(O)cccc2OC)c1`, the GI50 in experiment [10] (read-out: GI50) is 9.64 µM; in experiment [10] (read-out: pGI50 (converted)), 9.57 µM.
Turning to `COc1cccc(/C=C/C(=O)c2ccccc2O)c1OC`, the GI50 was 14.4 µM in experiment [10] (read-out: GI50) and 14.5 µM in experiment [10] (read-out: pGI50 (converted)).
`COc1cc(/C=C/C(=O)c2c(O)cccc2OC)cc(OC)c1`: the GI50 in experiment [10] (read-out: GI50) was 11.4 µM; in [10] (read-out: pGI50 (converted)), 11.5 µM.
The like results for `COc1ccccc1/C=C/C(=O)c1c(O)cccc1OC` were, in that order, 9.55 µM and 9.57 µM.
For the compound `O=C(/C=C/c1ccccc1)c1ccccc1O` [2'-HYDROXYCHALCONE], the GI50 in experiment [10] (read-out: GI50) and in experiment [10] (read-out: pGI50 (converted)) was 13.5 µM throughout.

For the origin of these results see ChEMBL document CHEMBL3124892, “Polyphenols bearing cinnamaldehyde scaffold showing cell growth inhibitory effects on the cisplatin-resistant A2780/Cis ovarian cancer cells” (Bioorg Med Chem, 2014).
